Reference: ChEMBL document CHEMBL1151757, “Synthesis, radiosynthesis, and biological evaluation of fluorine-18-labeled 2beta-carbo(fluoroalkoxy)-3beta-(3'-((Z)-2-haloethenyl)phenyl)nortropanes: candidate radioligands for in vivo imaging of the serotonin transporter with positron emission tomography” (J Med Chem, 2008)

What was measured:
[1] = Ratio of drug uptake in pons to cerebellum in anesthetized cynomolgus monkey after 165 mins postinjection; format: ADME, organism-based, Macaca fascicularis; settings: in vivo, 2.75 h
[2] = Drug uptake in awake rhesus monkey thalamus after 0.3 mins postinjection; format: ADME, organism-based, Macaca mulatta; settings: in vivo, 0.005 h
[3] = Drug uptake in awake rhesus monkey putamen after 0.3 mins postinjection; format: ADME, organism-based, Macaca mulatta; settings: in vivo, 0.005 h
[4] = Drug uptake in awake rhesus monkey brain frontal lobe after 115 mins postinjection; format: ADME, organism-based, Macaca mulatta; settings: in vivo
[5] = Drug uptake in awake rhesus monkey brain pons after 1.25 mins postinjection; format: ADME, organism-based, Macaca mulatta; settings: in vivo, 75 s
[6] = Protein binding in anesthetized cynomolgus monkey plasma after 30 mins postinjection; format: ADME, organism-based, Macaca fascicularis; settings: read-out: PPB (converted)

Row | SMILES | Ratio [1] | Drug uptake [2] | Drug uptake [3] | Drug uptake [4] | Drug uptake [5] | fraction unbound at 0.5 h [6]
1 | O=C(OCC[18F])C1C2CCC(CC1c1ccc(/C=C\I)cc1)N2 (stereo unspecified) | 2.6 | 0 | 0.05 |  |  | 
2 | O=C(OCC[18F])C1C2CCC(CC1c1cccc(/C=C\I)c1)N2 (stereo unspecified) |  |  |  | 0.1 | 0.01 | 0.916
